Data: US20250257060A1, “OXADIAZOLE COMPOUND, PHARMACEUTICAL COMPOSITION COMPRISING SAME, AND USE THEREOF” (SUZHOU GENHOUSE BIO CO., LTD., priority 2022, published 2025)
Where two headings read alike, the source gives them in different places.

Key:
[1] = Phase I metabolic stability in mouse liver microsomes (MLMs); type: in vitro ADME, CD-1 mice; settings: MLM
Experimental: (§1) Phase I metabolic stability of the test compounds in liver microsomes of CD-1 mice (MLMs), Sprague-Dawley rats (RLMs), beagle dogs (DLMs), cynomolgus monkeys (CLMs), and humans (HLMs) was evaluated.
(§2) The animal and human liver microsomes used in the test system were purchased from Xenotech, Corning, or other qualified suppliers and stored in a freezer at a temperature below −60° C. prior to use.
(§3) The test samples and control compounds were separately incubated with animal and human liver microsomes at 37±1° C. for a period of incubation time up to 60 min. The samples were removed at the indicated time points, and the reaction was stopped with acetonitrile or other organic solvents containing an internal standard. After centrifugation, the resulting supernatants were assayed by liquid chromatography-tandem mass spectrometry (LC-MS/MS).
(§4) 73.21 g of dipotassium hydrogenphosphate trihydrate and 10.78 g of potassium dihydrogenphosphate were dissolved in 4000 mL of ultrapure water. The solution was adjusted to pH 7.40±0.10 with 10% phosphoric acid or 1 M potassium hydroxide to make a final concentration of 100 mM.
(§5) The test sample powder was prepared into a stock solution at a certain concentration with DMSO or other organic solvents, which was then further diluted with a proper organic solvent.
(§6) Microsomes of each species were diluted into a 2× working solution with a 100 mM potassium phosphate buffer. The final concentration of the microsomes in the reaction system was 0.5 mg/mL.
(§7) An appropriate amount of nicotinamide adenine dinucleotide phosphate (NADP) and isocitric acid (ISO) powder was weighed out, dissolved in a magnesium chloride solution, and shaken and mixed well. An appropriate amount of isocitrate dehydrogenase (IDH) was added, and the mixture was mixed well by gently turning upside down. The final concentrations in the reaction system were: 1 mM NADP, 1 mM magnesium chloride, 6 mM ISO, and 1 unit/mL IDH.
(§8) Incubation was performed in a 96-well plate. Eight incubation plates were prepared and designated T0, T5, T15, T30, T45, T60, Blank60, and NCF60, respectively. The first 6 plates corresponded to reaction time points of 0, 5, 15, 30, 45, and 60 min, respectively. No test sample or control compound was added to the Blank60 plate, and samples were taken after 60 min of incubation. In the NCF60 plate, incubation was performed for 60 min using the potassium phosphate buffer instead of the NADPH regeneration system solution. Three replicates were made for samples in all conditions.
(§9) The microsomes and the test sample or control compound were mixed, and then the incubation plates Blank60, T5, T15, T30, T45, and T60 except for TO and NCF60 were placed in a 37° C. water bath for pre-incubation for about 10 min. In the incubation plate TO, a stop solution was first added, followed by addition of the NADPH regeneration system working solution, and 98 μL of the potassium phosphate buffer was added to each sample well of the incubation plate NCF60 to initiate the reaction. After the pre-incubations of the incubation plates Blank60, T5, T15, T30, T45, and T60 were completed, 98 μL of the NADPH regeneration system working solution was added to each sample well to initiate the reaction. The reaction temperature was 37±1° C., the final volume of the reaction was 200 μL, and the reaction system included 0.5 mg/mL microsomes, […], 1 mM NADP, 6 mM ISO, and 1 unit/mL IDH.
(§10) At 5 min, 15 min, 30 min, 45 min, and 60 min, a cold stop solution containing an internal standard was added to the reaction plate to stop the reaction.
(§11) All the reaction plates after the reaction was stopped were shaken well and centrifuged at 3220×g at 4° C. for 20 min. After the supernatant was diluted according to a certain proportion, LC-MS/MS analysis was performed.
(§12) Sample analysis was performed by the liquid chromatography-tandem mass spectrometry (LC-MS/MS) method without standard curves and quality control samples. […]

[2] = Phase I metabolic stability in human liver microsomes (HLMs); type: in vitro ADME, humans; settings: HLM
Experimental: as §1, §2, §3, §4, §5, §6, §7, §8, §9, §10, §11, §12

[3] = Pharmacokinetic test in mice (IV and PO); type: in vivo, BALB/c mice; settings: for Cmax / AUC(0-inf) / AUC(0-t) / MRT inf / Vd / Tmax: BALB/c, mouse, plasma; for MRT inf: read-out: MRT(0-∞); for Vd: read-out: Vz
Experimental: In this example, the pharmacokinetic behavior of the compounds after intravenous injection (IV) and intragastric (PO) administration in BALB/c mice was tested.
On the day of administration, mice were weighed for actual body weight and the administration volume was calculated. Each compound was tested in two groups with 3 mice in each group, one group administered by single intravenous injection and the other group of mice by single intragastric administration. Whole blood samples were collected via the orbit at prescribed time points (0.25 h, 0.5 h, 1 h, 2 h, 4 h, 8 h, and 24 h after administration). After blood sample collection, the samples were immediately transferred to labeled commercial sample tubes containing K2-EDTA (0.85-1.15 mg), followed by centrifugation (3200×g, 4° C., 10 min) and plasma collection. The plasma was transferred to a pre-cooled centrifuge tube, frozen in dry ice, and stored in an ultra-low temperature freezer at −60° C. or lower until the LC-MS/MS analysis.
Plasma concentrations were determined by a LC-MS/MS method. Plasma drug concentration data for compounds 1 and 2 were processed in a non-compartmental model using WinNonlin Version 6.3 (Pharsight, Mountain View, CA) pharmacokinetic software. The relevant pharmacokinetic parameters were calculated by a linear logarithmic trapezoid method.

[4] = Phase I metabolic stability in rat liver microsomes (RLMs); type: in vitro ADME, Sprague-Dawley rats; settings: RLM
Experimental: as §1, §2, §3, §4, §5, §6, §7, §8, §9, §10, §11, §12

HDAC6 = HDAC6 (Homo sapiens (Human), UniProt Q9UBN7); test: HDAC6 enzymatic activity assay; type: biochemical
Sequence of HDAC6 (Q9UBN7 whole entry): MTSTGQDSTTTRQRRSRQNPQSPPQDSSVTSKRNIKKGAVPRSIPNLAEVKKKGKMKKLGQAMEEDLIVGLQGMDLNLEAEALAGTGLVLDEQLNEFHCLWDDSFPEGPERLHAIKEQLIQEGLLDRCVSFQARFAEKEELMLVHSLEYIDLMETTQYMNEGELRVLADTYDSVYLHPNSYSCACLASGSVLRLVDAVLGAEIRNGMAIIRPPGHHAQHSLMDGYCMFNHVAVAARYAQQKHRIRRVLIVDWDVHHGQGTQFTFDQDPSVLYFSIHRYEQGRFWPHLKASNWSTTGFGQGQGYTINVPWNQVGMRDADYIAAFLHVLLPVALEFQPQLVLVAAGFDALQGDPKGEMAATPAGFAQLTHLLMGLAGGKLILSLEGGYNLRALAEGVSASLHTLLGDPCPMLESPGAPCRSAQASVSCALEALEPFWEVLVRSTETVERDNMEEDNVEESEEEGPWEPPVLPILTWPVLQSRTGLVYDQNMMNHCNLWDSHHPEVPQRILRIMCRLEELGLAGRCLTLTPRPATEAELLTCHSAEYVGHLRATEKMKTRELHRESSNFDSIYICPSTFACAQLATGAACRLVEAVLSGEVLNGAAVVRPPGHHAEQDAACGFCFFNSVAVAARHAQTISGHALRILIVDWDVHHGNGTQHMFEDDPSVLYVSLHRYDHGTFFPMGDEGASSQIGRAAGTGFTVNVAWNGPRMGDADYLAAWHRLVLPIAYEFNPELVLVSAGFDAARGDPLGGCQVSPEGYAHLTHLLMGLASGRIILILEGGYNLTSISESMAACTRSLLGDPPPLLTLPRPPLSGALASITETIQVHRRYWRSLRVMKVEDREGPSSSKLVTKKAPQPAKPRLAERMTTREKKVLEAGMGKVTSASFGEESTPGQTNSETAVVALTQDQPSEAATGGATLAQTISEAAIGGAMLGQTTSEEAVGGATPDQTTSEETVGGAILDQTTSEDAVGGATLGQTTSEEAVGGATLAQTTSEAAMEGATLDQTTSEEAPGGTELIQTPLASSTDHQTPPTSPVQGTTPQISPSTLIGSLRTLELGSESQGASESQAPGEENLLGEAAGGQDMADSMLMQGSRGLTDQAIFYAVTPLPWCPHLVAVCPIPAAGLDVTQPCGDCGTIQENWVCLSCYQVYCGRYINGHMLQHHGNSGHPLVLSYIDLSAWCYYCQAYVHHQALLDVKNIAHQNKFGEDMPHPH
Experimental: The inhibitory activity of the compounds of the present application against HDAC6 was evaluated by an enzymatic activity assay. HDAC6 (Abcam), test compounds, and a 20 µM substrate solution (Ac-GAK(Ac)-AMC) were each added to a 384-well plate, and the plate was incubated at 37° C. for 30 min. […] and […] were added, and the plate was incubated at room temperature for 15 min. […] IC50 was obtained by fitting using GraphPadPrism 7.0 software.

[5] = Brain-to-blood drug concentration ratio of mice; type: in vivo; settings: mouse, 5 mg/kg PO, 2 h; for Kp at 2 h: brain/plasma
Experimental: On the day of administration, mice were weighed for actual body weight and the administration volume was calculated. In each group of 9 mice, the compound was administered by single intravenous (IV) injection or intragastric (PO) administration. Whole blood samples were collected via the orbit at prescribed time points. After blood sample collection, the samples were immediately transferred to labeled commercial sample tubes containing K2-EDTA (0.85-1.15 mg), followed by centrifugation (3200×g, 4° C., 10 min) and plasma collection. The plasma was transferred to a pre-cooled centrifuge tube, frozen in dry ice, and stored in an ultra-low temperature freezer at −60° C. or lower until the LC-MS/MS analysis. 20 μL of a plasma sample or brain tissue homogenate was taken and 80 μL of an internal standard solution (50 ng/mL solution of propafenone in acetonitrile) was added. The plate was sealed with a film sealer at 165° C., shaken on a micro oscillator (maximum vibration speed) for 10 min, and centrifuged at 4000 rpm for 20 min using a low-speed benchtop centrifuge, 10 μL of supernatant was transferred and 90 μL of acetonitrile was added. The mixture was vortexed and mixed well, and then the plate was sealed with the film sealer at 165° C. After the mixture was vortexed and mixed well, 1 μL of supernatant was taken for LC-MS/MS analysis. Plasma drug concentration data for the compounds were processed in a non-compartmental model using WinNonlin Version 6.3 (Pharsight, Mountain View, CA) pharmacokinetic software. The relevant pharmacokinetic parameters were calculated by a linear logarithmic trapezoid method.
Data processing: brain-to-blood drug concentration ratio of mice at the same time point=drug concentration in brain tissue/drug concentration in plasma

[6] = test system: acetylation level of α-tubulin in HCT116 cells; test: Assay on acetylation level of α-tubulin, HCT116 cells; type: cell-based; settings: Homo sapiens, HCT-116, 6 h
Experimental: A375/HCT116/HCC827 cells at a logarithmic growth phase were taken, digested with a […] (trypsin), centrifuged, counted, and plated in a 96-well plate at an appropriate cell density (30,000 cells/well) at 100 µL/well, and an appropriate amount of PBS was added around the plate for water sealing. The next day, the cells were treated with the compounds at different concentrations (starting at 100 μM, 5-fold dilution, 9 concentration gradients). After 6 h, the medium was pipetted out and the cells were washed twice with 100 μL of PBST. The cells were then immobilized in 4% paraformaldehyde, and the plate was incubated at room temperature for 20 min. The stationary liquid was discarded and the cells were washed with PBST. 150 μL of special blocking buffer (containing 1% Triton-100) was added to each well for blocking at room temperature for 2 h, and the plate was washed with PBS to remove excess blocking buffer. α-tubulin (DM1A) mouse mAb and acetyl-α-tubulin (Lys40) (D20G3) XP rabbit mAb were diluted at a 1:2000 ratio with a blocking buffer containing 0.033% Triton-100. The dilutions were added to the 96-well plate and the plate was incubated overnight at 4° C. Meanwhile, a blank control group was set. The next day, the plate was washed twice with PBST. Secondary anti-mouse IgG (H+L) (DyLight™ 680 conjugate) and anti-rabbit IgG (H+L) (DyLight™ 800 conjugate) were diluted at a 1:2000 ratio with a blocking buffer containing 0.033% Triton-100. The dilutions were added to a 96-well plate and the plate was incubated at room temperature for 2 h. The plate was washed twice with PBST and once with PBS. Fluorescence signals at 700 nm and 800 nm were detected with a Li-COR Odyssey two-color near-infrared laser imager.

[7] = CD-1, mouse, liver microsomes, pH 7.4
[8] = buffer instead of NADPH regeneration system, 60 min
[9] = human, liver microsomes, pH 7.4
[10] = Sprague-Dawley, rat, liver microsomes, pH 7.4
[11] = brain, read-out: Brain drug concentration
[12] = plasma, read-out: Blood drug concentration

O=S1(=O)c2cc(-c3nnc(C(F)F)o3)ccc2CN1C(c1ccccn1)[C@H](O)c1ccccn1 (some centres unmarked) [Compound 83]
CLint scaled at 1 µM [1, 7]: 41.4 mL/min/kg
half-life at 1 M [1, 7]: 2.2 h
Remaining rate (NCF = 60 min) [1, 8]: 84.39%
Remaining rate (T = 60 min) ([1]; with NADPH, 60 min): 72.27%
Remaining rate (NCF = 60 min) [2, 8]: 84.68%
Remaining rate (T = 60 min) ([2]; with NADPH, 60 min): 82.70%
CLint scaled at 1 µM [2, 9]: 6.43 mL/min/kg
half-life at 1 M [2, 9]: 4.51 h
Cmax ([3]; po, 10 mg/kg, read-out: C0/Cmax): 12 µM
AUC(0-inf) ([3]; mice, IV 2 mg/kg): 8.78 µM·h
AUC(0-t) ([3]; mice, IV 2 mg/kg): 8.61 µM·h
Cmax ([3]; mice, IV 2 mg/kg (C0)): 5.27 µM
MRT inf ([3]; mice, IV 2 mg/kg): 2.06 h
Vd ([3]; mice, IV 2 mg/kg): 1.01 L/kg
AUC(0-inf) ([3]; mice, PO 10 mg/kg): 63.7 µM·h
AUC(0-t) ([3]; mice, PO 10 mg/kg): 50.5 µM·h
Tmax ([3]; mice, PO 10 mg/kg): 0.5 h
MRT inf ([3]; mice, PO 10 mg/kg): 4.57 h
CLz ([3]; mice, IV 2 mg/kg): 7.82 mL/min/kg
t½z ([3]; mice, IV 2 mg/kg): 1.493 h
F ([3]; mice, PO 10 mg/kg): 117.4%
t½z ([3]; mice, PO 10 mg/kg): 3.323 h
Remaining rate (NCF = 60 min) [4, 8]: 88.49%
Remaining rate (T = 60 min) ([4]; with NADPH, 60 min): 36.99%
CLint scaled at 1 µM [4, 10]: 58.6 mL/min/kg
half-life at 1 M [4, 10]: 0.706 h

O=S(=O)(N[C@@H]1CCCC[C@H]1N1Cc2ccc(-c3nnc(C(F)F)o3)cc2S1(=O)=O)C1CC1 [Compound 4]
IC50 (HDAC6): 154 nM
concentration at 2 h [5, 11]: 190 ng/mL
Kp at 2 h [5]: 0.08
concentration at 2 h [5, 12]: 2260 ng/mL

CN(C)C(=O)N[C@@H]1CCCC[C@H]1N1Cc2ccc(-c3nnc(C(F)F)o3)cc2S1(=O)=O [Compound 93]
IC50 (HDAC6): 133 nM
Cmax ([3]; po, 5 mg/kg, read-out: C0/Cmax): 3.41 µM
AUC(0-inf) ([3]; mice, IV 1 mg/kg): 1.08 µM·h
AUC(0-t) ([3]; mice, IV 1 mg/kg): 1.07 µM·h
Cmax ([3]; mice, IV 1 mg/kg (C0)): 2.11 µM
MRT inf ([3]; mice, IV 1 mg/kg): 0.6 h
Vd ([3]; mice, IV 1 mg/kg): 1.9 L/kg
AUC(0-inf) ([3]; mice, PO 5 mg/kg): 4.57 µM·h
AUC(0-t) ([3]; mice, PO 5 mg/kg): 4.56 µM·h
Tmax ([3]; mice, PO 5 mg/kg): 0.5 h
MRT inf ([3]; mice, PO 5 mg/kg): 1.2 h
CLz ([3]; mice, IV 1 mg/kg): 33.3 mL/min/kg
t½z ([3]; mice, IV 1 mg/kg): 0.7 h
F ([3]; mice, PO 5 mg/kg): 84.4%
t½z ([3]; mice, PO 5 mg/kg): 0.7 h
concentration at 2 h [5, 11]: 27 ng/mL
Kp at 2 h [5]: 0.11
concentration at 2 h [5, 12]: 252 ng/mL

O=C(N[C@@H]1CCOC[C@H]1N1Cc2ccc(-c3nnc(C(F)F)o3)cc2S1(=O)=O)C(F)(F)C(F)(F)F [Compound 66]
EC50 [6]: 322 nM

O=C(N[C@@H]1CCOC[C@H]1N1Cc2ccc(-c3nnc(C(F)F)o3)cc2S1(=O)=O)C1(C(F)(F)F)CC1 [Compound 65]
EC50 [6]: 467 nM

O=C(N[C@@H]1CCCC[C@H]1N1Cc2ccc(-c3nnc(C(F)F)o3)cc2S1(=O)=O)C(F)(F)F [Compound 55]
IC50 (HDAC6): 48.4 nM

O=S1(=O)c2cc(-c3nnc(C(F)F)o3)ccc2CN1[C@@H](c1ncccn1)[C@@H](O)c1ncccn1 [Compound 103j-C]
IC50 (HDAC6): 226 nM

O=S1(=O)c2cc(-c3nnc(C(F)F)o3)ccc2CN1[C@@H](c1cnccn1)[C@H](O)c1cnccn1 (single isomer, unassigned) [Compound 99j-A-A]
IC50 (HDAC6): 205 nM
